{"source": "patent US20080009418A1", "about": "“Selective Inhibitors” (Alchemia LTD., priority 2004, published 2008)", "details_in_all_cases": "compound at 10 μM", "key": {"[1]": {"target": "T1, Human μ-opioid (MOP) (Homo sapiens, UniProt P35372)", "T1 construct": "purchased Perkin Elmer Biosignal", "T1 sequence (P35372 whole entry)": "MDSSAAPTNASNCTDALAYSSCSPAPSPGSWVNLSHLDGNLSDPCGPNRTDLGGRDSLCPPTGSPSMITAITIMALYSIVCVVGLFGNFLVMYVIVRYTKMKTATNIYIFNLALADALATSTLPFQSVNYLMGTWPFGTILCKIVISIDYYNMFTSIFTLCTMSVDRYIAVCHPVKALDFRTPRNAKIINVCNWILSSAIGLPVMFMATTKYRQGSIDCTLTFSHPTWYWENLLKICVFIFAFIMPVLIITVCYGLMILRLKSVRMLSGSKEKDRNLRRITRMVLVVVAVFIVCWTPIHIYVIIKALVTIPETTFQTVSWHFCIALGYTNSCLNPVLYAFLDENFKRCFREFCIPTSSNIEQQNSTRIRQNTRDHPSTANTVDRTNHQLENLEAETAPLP", "assay": "Radioligand binding, human μ-opioid (MOP) membranes, FlashPlate, [3H]-Naloxone", "how_it_was_run": "(§1)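 Cloned human receptor membranes were coated onto FlashPlate wells and incubated with radioligand and compound (added from a 0.5 mM DMSO daughter plate) for 1 hour at room temperature in the dark. Scintillation counting gave percent inhibition, with DMSO defining total and reference ligand defining non-specific binding.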"}, "[2]": {"target": "T2, Human Melanocortin (MC3) (Homo sapiens, UniProt P41968)", "T2 construct": "purchased Perkin Elmer Biosignal", "T2 sequence (P41968 whole entry)": "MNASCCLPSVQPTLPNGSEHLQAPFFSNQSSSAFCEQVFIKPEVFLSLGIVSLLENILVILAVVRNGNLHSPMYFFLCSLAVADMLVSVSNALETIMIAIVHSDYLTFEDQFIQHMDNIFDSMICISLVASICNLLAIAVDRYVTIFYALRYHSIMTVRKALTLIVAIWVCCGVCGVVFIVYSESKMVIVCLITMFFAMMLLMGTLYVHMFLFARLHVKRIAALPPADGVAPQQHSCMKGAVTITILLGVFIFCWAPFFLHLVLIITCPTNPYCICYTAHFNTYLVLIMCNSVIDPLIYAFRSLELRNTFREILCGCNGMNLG", "assay": "Radioligand binding, human melanocortin MC3 membranes, FlashPlate, [125I]-NDP-αMSH", "how_it_was_run": "as §1"}, "[3]": {"target": "T3, Mouse urotensin (mUR2) (Mus musculus, UniProt Q8VIH9)", "T3 construct": "purchased Perkin Elmer Biosignal", "T3 sequence (Q8VIH9 1-385)": "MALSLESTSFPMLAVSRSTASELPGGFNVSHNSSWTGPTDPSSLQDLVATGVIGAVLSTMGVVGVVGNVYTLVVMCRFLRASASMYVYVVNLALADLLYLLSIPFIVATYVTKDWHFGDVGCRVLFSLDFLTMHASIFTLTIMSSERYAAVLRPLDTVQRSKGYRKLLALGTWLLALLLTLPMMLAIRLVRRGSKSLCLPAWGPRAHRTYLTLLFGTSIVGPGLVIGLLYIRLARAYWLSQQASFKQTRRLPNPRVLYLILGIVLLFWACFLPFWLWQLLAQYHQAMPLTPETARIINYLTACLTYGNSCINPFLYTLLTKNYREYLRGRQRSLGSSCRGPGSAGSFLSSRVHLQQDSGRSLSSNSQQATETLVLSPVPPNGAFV", "assay": "Radioligand binding, mouse urotensin mUR2 membranes, FlashPlate, [125I]-Urotensin II", "how_it_was_run": "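Cloned mouse urotensin (mUR2) receptor membranes from Perkin Elmer Biosignal were immobilized in FlashPlate microplates using a proprietary coating. Each well got 19.5 μl buffer, then 0.5 μl of DMSO, reference ligand, or compound. Adding 5 μl of [125I]-Urotensin II, diluted to 5× final concentration in binding buffer, started binding. Plates were sealed with TopSeal-A and incubated 1 hour at room temperature in the dark. Wells were counted for 30 seconds each on a TopCount after a 60-second delay, and percentage inhibition was calculated.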"}, "[4]": {"target": "T4, Human δ-opioid (DOP) (Homo sapiens, UniProt P41143)", "T4 construct": "purchased Perkin Elmer Biosignal", "T4 sequence (P41143 whole entry)": "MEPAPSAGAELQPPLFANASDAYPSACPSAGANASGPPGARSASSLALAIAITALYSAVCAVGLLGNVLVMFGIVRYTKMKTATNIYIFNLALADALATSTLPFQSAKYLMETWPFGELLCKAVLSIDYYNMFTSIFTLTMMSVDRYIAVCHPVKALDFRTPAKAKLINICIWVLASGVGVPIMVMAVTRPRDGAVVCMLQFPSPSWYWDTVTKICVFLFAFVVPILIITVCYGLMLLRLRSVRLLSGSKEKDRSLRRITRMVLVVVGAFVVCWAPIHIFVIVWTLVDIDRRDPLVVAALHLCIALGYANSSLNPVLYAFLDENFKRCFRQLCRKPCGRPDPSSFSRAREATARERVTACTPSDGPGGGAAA", "assay": "Radioligand binding, human δ-opioid (DOP) membranes, FlashPlate, [3H]-Bremazocine", "how_it_was_run": "as §1"}, "[5]": {"target": "T5, Human melanin-concentrating hormone (MCH1) (Homo sapiens, UniProt Q99705)", "T5 construct": "purchased Perkin Elmer Biosignal", "T5 sequence (Q99705 whole entry)": "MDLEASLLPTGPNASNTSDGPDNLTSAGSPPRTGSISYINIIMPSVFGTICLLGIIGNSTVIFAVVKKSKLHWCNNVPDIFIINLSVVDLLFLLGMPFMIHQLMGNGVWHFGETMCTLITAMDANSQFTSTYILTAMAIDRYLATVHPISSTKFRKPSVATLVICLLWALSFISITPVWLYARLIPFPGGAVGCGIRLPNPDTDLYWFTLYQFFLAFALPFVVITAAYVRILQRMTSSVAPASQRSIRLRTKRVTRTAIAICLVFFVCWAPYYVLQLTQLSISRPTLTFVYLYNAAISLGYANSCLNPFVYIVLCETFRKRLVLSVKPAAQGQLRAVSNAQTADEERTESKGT", "assay": "Radioligand binding, human melanin-concentrating hormone MCH1 membranes, FlashPlate, [125I]-S36057", "how_it_was_run": "as §1"}, "[6]": {"target": "T6, Human neurokinin (NK1) (Homo sapiens, UniProt P25103)", "T6 construct": "purchased Perkin Elmer Biosignal", "T6 sequence (P25103 whole entry)": "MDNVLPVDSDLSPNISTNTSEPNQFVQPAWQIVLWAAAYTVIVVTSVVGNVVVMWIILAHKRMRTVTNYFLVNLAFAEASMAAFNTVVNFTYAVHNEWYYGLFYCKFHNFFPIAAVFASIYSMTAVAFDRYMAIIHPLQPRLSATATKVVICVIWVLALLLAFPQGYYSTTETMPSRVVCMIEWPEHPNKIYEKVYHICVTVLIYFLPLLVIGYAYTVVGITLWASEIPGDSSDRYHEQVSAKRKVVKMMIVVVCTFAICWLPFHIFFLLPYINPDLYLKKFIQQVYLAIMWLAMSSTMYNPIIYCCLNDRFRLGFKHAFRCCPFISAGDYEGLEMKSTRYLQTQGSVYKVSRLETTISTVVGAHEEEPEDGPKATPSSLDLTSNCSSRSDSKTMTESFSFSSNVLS", "assay": "Radioligand binding, human neurokinin NK1 membranes, filtration, [125I]-Substance P", "how_it_was_run": "(§2)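 Percent inhibition of radioligand binding measured on recombinant human membranes: NK1 with [125I]-Substance P, KOP with [3H]-Diprenorphine. Incubation 1 h at room temperature, then harvest onto 0.3% PEI-soaked filters, cold Tris-HCl pH 7.4 washes and scintillation counting; non-specific binding from reference ligand wells.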"}, "[7]": {"target": "T7, Human κ-Opioid (KOP) (Homo sapiens, UniProt P41145)", "T7 construct": "purchased Perkin Elmer Biosignal", "T7 sequence (P41145 whole entry)": "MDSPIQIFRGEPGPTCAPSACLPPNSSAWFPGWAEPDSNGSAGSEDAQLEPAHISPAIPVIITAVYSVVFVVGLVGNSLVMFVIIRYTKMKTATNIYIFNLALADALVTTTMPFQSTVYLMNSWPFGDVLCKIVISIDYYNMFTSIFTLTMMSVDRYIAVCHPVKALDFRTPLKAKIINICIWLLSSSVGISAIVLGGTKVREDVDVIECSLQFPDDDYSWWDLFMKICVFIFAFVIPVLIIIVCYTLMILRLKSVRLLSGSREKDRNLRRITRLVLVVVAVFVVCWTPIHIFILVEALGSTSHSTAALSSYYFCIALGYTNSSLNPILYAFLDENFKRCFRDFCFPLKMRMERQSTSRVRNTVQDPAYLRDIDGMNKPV", "assay": "Radioligand binding, human κ-opioid (KOP) membranes, filtration, [3H]-Diprenorphine", "how_it_was_run": "as §2"}, "[8]": {"target": "T8, Human neuropeptide Y (NPY-Y1) (Homo sapiens, UniProt P25929)", "T8 construct": "purchased Perkin Elmer Biosignal", "T8 sequence (P25929 1-384)": "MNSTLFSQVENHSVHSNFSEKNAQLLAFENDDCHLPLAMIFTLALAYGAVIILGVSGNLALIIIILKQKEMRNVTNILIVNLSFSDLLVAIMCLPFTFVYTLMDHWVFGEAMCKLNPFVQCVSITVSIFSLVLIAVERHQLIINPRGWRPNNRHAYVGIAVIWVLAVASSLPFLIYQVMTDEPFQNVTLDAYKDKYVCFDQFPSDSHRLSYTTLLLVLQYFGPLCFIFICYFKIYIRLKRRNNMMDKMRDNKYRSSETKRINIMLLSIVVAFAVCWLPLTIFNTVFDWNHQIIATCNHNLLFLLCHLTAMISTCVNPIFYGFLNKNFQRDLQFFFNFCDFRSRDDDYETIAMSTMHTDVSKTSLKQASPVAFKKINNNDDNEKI", "assay": "Radioligand binding, human neuropeptide Y NPY-Y1 membranes, FlashPlate, [125I]-PYY", "how_it_was_run": "as §1"}, "[9]": {"target": "T9, Human melanocortin (MC5) (Homo sapiens, UniProt P33032)", "T9 construct": "purchased Perkin Elmer Biosignal", "T9 sequence (P33032 whole entry)": "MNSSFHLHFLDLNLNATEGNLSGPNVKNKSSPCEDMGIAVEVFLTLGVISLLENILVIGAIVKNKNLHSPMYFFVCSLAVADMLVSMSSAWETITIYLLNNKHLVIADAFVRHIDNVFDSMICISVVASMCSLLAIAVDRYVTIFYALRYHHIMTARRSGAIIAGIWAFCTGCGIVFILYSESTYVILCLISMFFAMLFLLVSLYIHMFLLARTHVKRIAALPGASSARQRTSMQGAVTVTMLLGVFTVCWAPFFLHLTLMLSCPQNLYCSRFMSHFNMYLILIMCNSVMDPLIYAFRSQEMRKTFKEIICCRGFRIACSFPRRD", "assay": "Radioligand binding, human melanocortin MC5 membranes, FlashPlate, [125I]-NDP-αMSH", "how_it_was_run": "as §1"}, "[10]": {"target": "T10, Human opioid (ORL1) (Homo sapiens, UniProt P41146)", "T10 construct": "purchased Perkin Elmer Biosignal", "T10 sequence (P41146 whole entry)": "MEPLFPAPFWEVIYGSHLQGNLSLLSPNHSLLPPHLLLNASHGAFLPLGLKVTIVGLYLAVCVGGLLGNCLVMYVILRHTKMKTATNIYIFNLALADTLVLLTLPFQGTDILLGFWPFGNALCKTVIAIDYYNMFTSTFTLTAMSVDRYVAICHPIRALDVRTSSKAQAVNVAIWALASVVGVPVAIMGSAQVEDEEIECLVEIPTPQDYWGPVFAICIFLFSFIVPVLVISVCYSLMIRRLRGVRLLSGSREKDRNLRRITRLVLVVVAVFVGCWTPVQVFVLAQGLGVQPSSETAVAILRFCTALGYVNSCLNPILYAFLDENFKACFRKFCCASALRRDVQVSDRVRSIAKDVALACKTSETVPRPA", "assay": "Radioligand binding, human opioid ORL1 membranes, FlashPlate, [125I]-Nociceptin", "how_it_was_run": "as §1"}, "[11]": {"target": "T11, Human Melanocortin (MC4) (Homo sapiens, UniProt P32245)", "T11 construct": "purchased Perkin Elmer Biosignal", "T11 sequence (P32245 whole entry)": "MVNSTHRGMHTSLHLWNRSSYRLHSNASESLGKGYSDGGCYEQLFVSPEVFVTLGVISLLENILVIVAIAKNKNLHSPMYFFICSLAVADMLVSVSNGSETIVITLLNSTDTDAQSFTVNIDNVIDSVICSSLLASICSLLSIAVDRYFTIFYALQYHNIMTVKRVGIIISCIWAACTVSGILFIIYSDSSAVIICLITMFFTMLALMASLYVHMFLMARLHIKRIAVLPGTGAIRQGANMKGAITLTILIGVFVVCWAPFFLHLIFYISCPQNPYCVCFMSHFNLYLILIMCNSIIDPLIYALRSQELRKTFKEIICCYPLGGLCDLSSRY", "assay": "Radioligand binding, human melanocortin MC4 membranes, FlashPlate, [125I]-NDP-αMSH", "how_it_was_run": "as §1"}}, "data": [{"smiles": "CSC1O[C@H](COCc2ccc3ccccc3c2)[C@@H](O)[C@@H](OCc2ccc(Cl)cc2)[C@H]1NC(=O)CN", "note": "(stereo partly drawn) [compound 280]", "values": [{"measurement": "A7: inhibition of radioligand binding", "setting": "[1]; [3H]-Naloxone, FlashPlate", "result": "− (“−” indicates less than 50% inhibition at 10 μM)"}, {"measurement": "A3: inhibition of radioligand binding", "setting": "[2]; [125I]-NDP-αMSH, FlashPlate", "result": "− (“−” indicates less than 50% inhibition at 10 μM)"}, {"measurement": "A11: inhibition of radioligand binding", "setting": "[3]; [125I]-Urotensin II, FlashPlate", "result": "− (“−” indicates less than 50% inhibition at 10 μM)"}, {"measurement": "A1: inhibition of radioligand binding", "setting": "[4]; [3H]-Bremazocine, FlashPlate", "result": "− (“−” indicates less than 50% inhibition at 10 μM)"}, {"measurement": "A6: inhibition of radioligand binding", "setting": "[5]; [125I]-S36057, FlashPlate", "result": "− (“−” indicates less than 50% inhibition at 10 μM)"}, {"measurement": "A8: inhibition of radioligand binding", "setting": "[6]; [125I]-Substance P, filtration", "result": "+ (“+” indicates greater than 50% inhibition at 10 μM)"}, {"measurement": "A2: inhibition of radioligand binding", "setting": "[7]; [3H]-Diprenorphine, filtration", "result": "− (“−” indicates less than 50% inhibition at 10 μM)"}, {"measurement": "A9: inhibition of radioligand binding", "setting": "[8]; [125I]-PYY, FlashPlate", "result": "− (“−” indicates less than 50% inhibition at 10 μM)"}, {"measurement": "A5: inhibition of radioligand binding", "setting": "[9]; [125I]-NDP-αMSH, FlashPlate", "result": "− (“−” indicates less than 50% inhibition at 10 μM)"}, {"measurement": "A10: inhibition of radioligand binding", "setting": "[10]; [125I]-Nociceptin, FlashPlate", "result": "− (“−” indicates less than 50% inhibition at 10 μM)"}, {"measurement": "A4: inhibition of radioligand binding", "setting": "[11]; [125I]-NDP-αMSH, FlashPlate", "result": "− (“−” indicates less than 50% inhibition at 10 μM)"}]}, {"smiles": "CO[C@H]1[C@H](O)[C@@H](COCc2ccc(-c3ccccc3)cc2)OC(OCc2cccc(O)c2)[C@@H]1NC(=O)CCCN", "note": "(stereo partly drawn) [compound 164]", "values": [{"measurement": "A7 radioligand binding, percentage inhibition", "setting": "[1]; [3H]-Naloxone", "result": "− (“−” indicates less than 50% inhibition at 10 μM)"}, {"measurement": "A3 radioligand binding, percentage inhibition", "setting": "[2]; [125I]-NDP-αMSH", "result": "− (“−” indicates less than 50% inhibition at 10 μM)"}, {"measurement": "A11 radioligand binding, percentage inhibition", "setting": "[3]; [125I]-Urotensin II", "result": "− (“−” indicates less than 50% inhibition at 10 μM)"}, {"measurement": "A1 radioligand binding, percentage inhibition", "setting": "[4]; [3H]-Bremazocine", "result": "− (“−” indicates less than 50% inhibition at 10 μM)"}, {"measurement": "A6 radioligand binding, percentage inhibition", "setting": "[5]; [125I]-S36057", "result": "− (“−” indicates less than 50% inhibition at 10 μM)"}, {"measurement": "A8 radioligand binding, percentage inhibition", "setting": "[6]; [125I]-Substance P", "result": "+ (“+” indicates greater than 50% inhibition at 10 μM)"}, {"measurement": "A2 radioligand binding, percentage inhibition", "setting": "[7]; [3H]-Diprenorphine", "result": "− (“−” indicates less than 50% inhibition at 10 μM)"}, {"measurement": "A9 radioligand binding, percentage inhibition", "setting": "[8]; [125I]-PYY", "result": "− (“−” indicates less than 50% inhibition at 10 μM)"}, {"measurement": "A5 radioligand binding, percentage inhibition", "setting": "[9]; [125I]-NDP-αMSH", "result": "− (“−” indicates less than 50% inhibition at 10 μM)"}, {"measurement": "A10 radioligand binding, percentage inhibition", "setting": "[10]; [125I]-Nociceptin", "result": "− (“−” indicates less than 50% inhibition at 10 μM)"}, {"measurement": "A4 radioligand binding, percentage inhibition", "setting": "[11]; [125I]-NDP-αMSH", "result": "+ (“+” indicates greater than 50% inhibition at 10 μM)"}]}, {"smiles": "CO[C@H]1[C@H](O)[C@@H](COCc2ccccc2)OC(OCc2ccc(-c3ccccc3)cc2)[C@@H]1NC(=O)CNC(=N)N", "note": "(stereo partly drawn) [compound 58]", "values": [{"measurement": "A7 radioligand binding inhibition", "setting": "[1]; human μ-opioid (MOP) membranes", "result": "+ (“+” indicates greater than 50% inhibition at 10 μM)"}, {"measurement": "A3 radioligand binding inhibition", "setting": "[2]; human melanocortin MC3 membranes", "result": "− (“−” indicates less than 50% inhibition at 10 μM)"}, {"measurement": "A11 radioligand binding inhibition", "setting": "[3]; mouse urotensin mUR2 membranes", "result": "− (“−” indicates less than 50% inhibition at 10 μM)"}, {"measurement": "A1 radioligand binding inhibition", "setting": "[4]; human δ-opioid (DOP) membranes", "result": "− (“−” indicates less than 50% inhibition at 10 μM)"}, {"measurement": "A6 radioligand binding inhibition", "setting": "[5]; human MCH1 membranes", "result": "− (“−” indicates less than 50% inhibition at 10 μM)"}, {"measurement": "A8 radioligand binding inhibition", "setting": "[6]; human neurokinin NK1 membranes", "result": "+ (“+” indicates greater than 50% inhibition at 10 μM)"}, {"measurement": "A2 radioligand binding inhibition", "setting": "[7]; human κ-opioid (KOP) membranes", "result": "+ (“+” indicates greater than 50% inhibition at 10 μM)"}, {"measurement": "A9 radioligand binding inhibition", "setting": "[8]; human NPY-Y1 membranes", "result": "− (“−” indicates less than 50% inhibition at 10 μM)"}, {"measurement": "A5 radioligand binding inhibition", "setting": "[9]; human melanocortin MC5 membranes", "result": "+ (“+” indicates greater than 50% inhibition at 10 μM)"}, {"measurement": "A10 radioligand binding inhibition", "setting": "[10]; human ORL1 membranes", "result": "− (“−” indicates less than 50% inhibition at 10 μM)"}, {"measurement": "A4 radioligand binding inhibition", "setting": "[11]; human melanocortin MC4 membranes", "result": "+ (“+” indicates greater than 50% inhibition at 10 μM)"}]}]}
